Experimental data taken from patent US20230131899A1, “INHIBITORS OF MICROBIALLY INDUCED AMYLOID” (Axial Therapeutics, Inc., priority 2020, published 2023).
Like-named read-outs stand apart in the source and are kept apart here.

Test system: CsgA gene expression (csgBAC promoter-GFP reporter) in E. coli UTI89
Experiment: In vitro live cell fluorescent reporter assay of CsgA transcription (Reporter Assay)
Format: cell-based
Conditions: Escherichia coli
How it was run: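 Chromosomal single-copy csgBAC promoter–GFP reporter in E. coli UTI89, started at OD600 0.003 in YESCA broth with compound (0.14–100 μM, 1% DMSO), 20 h at 27 °C. GFP (ex 485/em 525 nm) background-subtracted and normalized to vehicle; IC50 and X[50] from curve fits. OD600 tracked growth effects.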

[1] = read-out: Reporter Assay Abs IC50 (activity range), median Abs IC50 in the CsgA reporter assay, class symbol
[2] = read-out: Reporter Assay Abs IC50 (μM), median Abs IC50 in the CsgA reporter assay, N/A = maximum expression reduction is <50% of control

SMILES	IC50 [1] [µM]	IC50 [2] [µM]
O=C(O)C1C[S+]([O-])c2c(-c3cccc(C(F)(F)F)c3)c(Cc3cccc4ccccc34)cc(=O)n21 (racemic) [Compound 027b, 7-(naphthalen-1-ylmethyl)-5-oxo-8-(3-(trifluoromethyl)phenyl)-2,3-dihydro-5H-thiazolo[3,2-a]pyridine-3-carboxylic acid 1-oxide]	> 10	77.5
Nc1c(Cc2cccc3ccccc23)c(-c2cccc(C(F)(F)F)c2)c2n(c1=O)C(C(=O)O)CS2 (racemic) [Compound 020, 6-amino-7-(naphthalen-1-ylmethyl)-5-oxo-8-(3-(trifluoromethyl)phenyl)-2,3-dihydro-5H-thiazolo[3,2-a]pyridine-3-carboxylic acid]	1.3 to 4.5	3.9
CCCN1CC(C(=O)O)n2c(c(-c3cccc(C(F)(F)F)c3)c(Cc3cccc4ccccc34)cc2=O)S1(=O)=O (racemic) [Compound 016, 8-(naphthalen-1-ylmethyl)-6-oxo-2-propyl-9-(3-(trifluoromethyl)phenyl)-3,4-dihydro-2H,6H-pyrido[1,2-e][1,2,5]thiadiazine-4-carboxylic acid 1,1-dioxide]	4.6 to 10	5
CN(C)CCN1CC(C(=O)O)n2c(c(-c3cccc(C(F)(F)F)c3)c(Cc3cccc4ccccc34)cc2=O)S1(=O)=O (stereo not shown) [Compound 017, 2-(2-(dimethylamino)ethyl)-8-(naphthalen-1-ylmethyl)-6-oxo-9-(3-(trifluoromethyl)phenyl)-3,4-dihydro-2H,6H-pyrido[1,2-e][1,2,5]thiadiazine-4-carboxylic acid 1,1-dioxide]	1.3 to 4.5	2.7
CN1CC(C(=O)O)n2c1c(-c1cccc(C(F)(F)F)c1)c(Cc1cccc3ccccc13)c(Br)c2=O (stereo not shown) [Compound 119, 6-bromo-1-methyl-7-(naphthalen-1-ylmethyl)-5-oxo-8-(3-(trifluoromethyl)phenyl)-1,2,3,5-tetrahydroimidazo[1,2-a]pyridine-3-carboxylic acid]	1.3 to 4.5	2.5
CCCCCN1CC(C(=O)O)n2c(c(-c3cccc(C(F)(F)F)c3)c(Cc3cccc4ccccc34)cc2=O)S1(=O)=O (racemic) [Compound 025, 8-(naphthalen-1-ylmethyl)-6-oxo-2-pentyl-9-(3-(trifluoromethyl)phenyl)-3,4-dihydro-2H,6H-pyrido[1,2-e][1,2,5]thiadiazine-4-carboxylic acid 1,1-dioxide]	1.3 to 4.5	1.9
CN1CC(C(=O)O)n2c(c(-c3cccc(C(F)(F)F)c3)c(Cc3cccc4ccccc34)c(C(N)=O)c2=O)S1(=O)=O (stereo not shown) [Compound 109, 7-carbamoyl-2-methyl-8-(naphthalen-1-ylmethyl)-6-oxo-9-(3-(trifluoromethyl)phenyl)-3,4-dihydro-2H,6H-pyrido[1,2-e][1,2,5]thiadiazine-4-carboxylic acid 1,1-dioxide]	1.3 to 4.5	1.9
COc1ccc(CN2C[C@@H](C(=O)O)n3c(c(-c4cccc(C(F)(F)F)c4)c(Cc4cccc5ccccc45)cc3=O)S2(=O)=O)cc1 (single isomer, unassigned) [Compound 026a]	1.3 to 4.5	2
CN1CC(C(N)=O)n2c(c(-c3cccc(C(F)(F)F)c3)c(Cc3cccc4ccccc34)cc2=O)S1(=O)=O (stereo not shown) [Compound 030, 2-methyl-8-(naphthalen-1-ylmethyl)-6-oxo-9-(3-(trifluoromethyl)phenyl)-3,4-dihydro-2H,6H-pyrido[1,2-e][1,2,5]thiadiazine-4-carboxamide 1,1-dioxide]	4.6 to 10	5
NC(=O)CN1CC(C(=O)O)n2c(c(-c3cccc(C(F)(F)F)c3)c(Cc3cccc4ccccc34)cc2=O)S1(=O)=O (stereo not shown) [Compound 028, 2-(2-amino-2-oxoethyl)-8-(naphthalen-1-ylmethyl)-6-oxo-9-(3-(trifluoromethyl)phenyl)-3,4-dihydro-2H,6H-pyrido[1,2-e][1,2,5]thiadiazine-4-carboxylic acid 1,1-dioxide]	> 10	18.2
O=C(O)C1CSc2c(-c3cccc(C(F)(F)F)c3)c(Cc3cccc4ccccc34)cc(=O)n21 (racemic) [Compound 011, 7-(naphthalen-1-ylmethyl)-5-oxo-8-(3-(trifluoromethyl)phenyl)-2,3-dihydro-5H-thiazolo[3,2-a]pyridine-3-carboxylic acid]	4.6 to 10	5.8
C=CCCN1CC(C(=O)O)n2c(c(-c3cccc(C(F)(F)F)c3)c(Cc3cccc4ccccc34)cc2=O)S1(=O)=O (stereo not shown) [Compound 024, 2-(but-3-en-1-yl)-8-(naphthalen-1-ylmethyl)-6-oxo-9-(3-(trifluoromethyl)phenyl)-3,4-dihydro-2H,6H-pyrido[1,2-e][1,2,5]thiadiazine-4-carboxylic acid 1,1-dioxide]	4.6 to 10	9.9
CN1CC(C(=O)O)n2c(c(-c3cccc(C(F)(F)F)c3)c(Cc3cccc4ccccc34)c(N)c2=O)S1(=O)=O (stereo not shown) [Compound 074, 7-amino-2-methyl-8-(naphthalen-1-ylmethyl)-6-oxo-9-(3-(trifluoromethyl)phenyl)-3,4-dihydro-2H,6H-pyrido[1,2-e][1,2,5]thiadiazine-4-carboxylic acid 1,1-dioxide]	> 10	29.2
CCN1CC(C(=O)O)n2c(c(-c3cccc(C(F)(F)F)c3)c(Cc3cccc4ccccc34)cc2=O)S1(=O)=O (single isomer, unassigned) [Compound 015a, 2-ethyl-8-(naphthalen-1-ylmethyl)-6-oxo-9-(3-(trifluoromethyl)phenyl)-3,4-dihydro-2H,6H-pyrido[1,2-e][1,2,5]thiadiazine-4-carboxylic acid 1,1-dioxide]	> 10	21.7
CCCN1CC(C(=O)O)n2c(c(-c3cccc(C(F)(F)F)c3)c(Cc3cccc4ccccc34)c(NC3CCCC3)c2=O)S1(=O)=O (stereo not shown) [Compound 126, 7-(cyclopentylamino)-8-(naphthalen-1-ylmethyl)-6-oxo-2-propyl-9-(3-(trifluoromethyl)phenyl)-3,4-dihydro-2H,6H-pyrido[1,2-e][1,2,5]thiadiazine-4-carboxylic acid 1,1-dioxide]	1.3 to 4.5	1.9
O=C(O)[C@@H]1CS(=O)(=O)c2c(-c3cccc(C(F)(F)F)c3)c(Cc3cccc4ccccc34)cc(=O)n21 (single isomer, unassigned) [Compound 010a, 7-(naphthalen-1-ylmethyl)-5-oxo-8-(3-(trifluoromethyl)phenyl)-2,3-dihydro-5H-thiazolo[3,2-a]pyridine-3-carboxylic acid 1,1-dioxide]	> 10	43.9
O=C(O)C1CN(CCCO)S(=O)(=O)c2c(-c3cccc(C(F)(F)F)c3)c(Cc3cccc4ccccc34)c(NC3CCCC3)c(=O)n21 (stereo not shown) [Compound 120, 7-(cyclopentylamino)-2-(3-hydroxypropyl)-8-(naphthalen-1-ylmethyl)-6-oxo-9-(3-(trifluoromethyl)phenyl)-3,4-dihydro-2H,6H-pyrido[1,2-e][1,2,5]thiadiazine-4-carboxylic acid 1,1-dioxide]	1.3 to 4.5	3.1
